Like-named read-outs stand apart in the source and are kept apart here.
Legend:
rgRSV224 virus = assay: Antiviral activity: rgRSV224 (GFP) replication in HeLa cells; type: cell-based, respiratory syncytial virus (RSV)
Experimental: (§1) Black 384-well clear-bottom microtiter plates (Corning, Amsterdam, The Netherlands) were filled via acoustic drop ejection using the echo liquid handler (Labcyte, Sunnyvale, California). 200 nL of compound stock solutions (100% DMSO) were transferred to the assay plates. 9 serial 4-fold dilutions of compound were made, creating per quadrant the same compound concentration. The assay was initiated by adding 10 µL of culture medium to each well (RPMI medium without phenol red, 10% FBS-heat inactivated, 0.04% gentamycin (50 mg/mL). All addition steps are done by using a multidrop dispenser (Thermo Scientific, Erembodegem, Belgium). Next, rgRSV224 virus (MOI = 1) diluted in culture medium was added to the plates. rgRSV224 virus is an engineered virus that includes an additional GFP gene (Hallak LK, Spillmann D, Collins PL, Peeples ME. Glycosaminoglycan sulfation requirements for respiratory syncytial virus infection; Journal of virology (2000), 74(22), 10508-13) and was in-licensed from the NIH (Bethesda, MD, USA). Finally, 20 µL of a HeLa cell suspension (3,000 cells/well) were plated. Medium, virus- and mock-infected controls were included in each test. The wells contain […] DMSO per volume. Cells were incubated at 37° C. in a 5% CO2 atmosphere. Three days post-virus exposure, viral replication was quantified by measuring GFP expression in the cells by an in house developed MSM laser microscope (Tibotec, Beerse, Belgium). The EC50 was defined as the 50% inhibitory concentration for GFP expression. In parallel, compounds were incubated for three days in a set of white 384-well microtiter plates (Corning) and the cytotoxicity of compounds in HeLa cells was determined by measuring the ATP content of the cells using the ATPlite kit (Perkin Elmer, Zaventem, Belgium) according to the manufacturer’s instructions. The CC50 was defined as the 50% concentration for cytotoxicity.

[1] = Cytotoxicity in HeLa cells (ATP content, ATPlite kit); type: cell-based; conditions: human
Experimental: as §1

[2] = human respiratory syncytial virus, HeLa, 72 h, read-out: RSV HELA EC50, HeLa cells, rgRSV224 MOI = 1, GFP expression three days post-virus exposure, averaged data of several repeat experiments

Compound	EC50 (rgRSV224 virus; [2]) [nM]	CC50 at 3 days ([1]; TOX HELA CC50) [nM]	EC50 (rgRSV224 virus; read-out: RSV HELA EC50, HeLa cells, rgRSV224 MOI = 1, GFP expression three days post-virus exposure, averaged data of several repeat experiments) [nM]	EC50 (rgRSV224 virus; human respiratory syncytial virus, HeLa, comparison table 5.3, antiviral RSV assay of Example 5.1) [nM]	CC50 at 3 days ([1]; CC50) [nM]
COc1cc(C(=O)NC[C@](O)(c2cc(C(C)(C)O)c(F)c(-c3ccc(F)cc3)n2)C2CC2)cc2cc(C)c(F)nc12 [compound 216, (-)-N-{2-Cyclopropyl-2-[5-Fluoro-6-(4-Fluorophenyl)-4-(2-Hydroxypropan-2-yl)Pyridin-2-yl]-2-Hydroxyethyl}-2-Fluoro-8-Methoxy-3-Methylquinoline-6-Carboxamide]	0.62	21000	–	–	–
[2H]C([2H])([2H])c1cc2cc(C(=O)NC[C@](O)(c3cc(C(C)(C)O)c(F)c(-c4ccc(F)cc4)n3)C(F)(F)F)cc(OC)c2nn1 [compound 311, (-)Methoxy-3-(Methyl-d3)-N-(3,3,3-Trifluoro-2-(5-Fluoro-6-(4-Fluorophenyl)-4-(2-Hydroxypropan-2-yl)Pyridin-2-yl)-2-Hydroxypropyl)Cinnoline-6-Carboxamide]	1.3	42000	–	–	–
Cc1cc2cc(C(=O)NC[C@](O)(c3cc(C(C)(C)O)c(F)c(-c4ccc(F)cc4)n3)C3CC3)cc(OC3CC3)c2nn1 [compound 265, (-)-N-{2-Cyclopropyl-2-[5-Fluoro-6-(4-Fluorophenyl)-4-(2-Hydroxypropan-2-yl)Pyridin-2-yl]-2-Hydroxyethyl}-8-(Cyclopropyloxy)-3-Methylcinnoline-6-Carboxamide]	0.69	39000	–	–	–
COc1cc(C(=O)NC[C@](O)(c2cc(C(C)(C)O)c(F)c(-c3ccc(C(F)(F)F)cc3)n2)C2CC2)cc2cc(C)c(F)nc12 [compound 217, N-[(-)Cyclopropyl{5-Fluoro-4-(2-Hydroxypropanyl)-6-[4-(Trifluoromethyl)Phenyl]-Pyridinyl}Hydroxyethyl]Fluoro-8-Methoxy-3-Methylquinoline-6-Carboxamide]	1.3	14000	–	–	–
COc1cc(C(=O)NC[C@@](O)(c2cc(C(C)(C)O)c(F)c(-c3ccc(F)cc3)n2)C(F)(F)F)cc2cc(C)nnc12 [compound 334, (+)Methoxy-3-Methyl-N-(3,3,3-Trifluoro-2-(5-Fluoro-6-(4-Fluorophenyl)-4-(2-Hydroxypropan-2-yl)Pyridin-2-yl)-2-Hydroxypropyl)Cinnoline-6-Carboxamide]	245	17000	–	–	–
Cc1cc2cc(C(=O)NC[C@](O)(c3cc(C(C)(C)O)c(Cl)c(-c4ccc(F)cc4)n3)C3CC3)cc(OC3CC3)c2nn1 [compound 264, (-)-N-{2-[5-Chloro-6-(4-Fluorophenyl)-4-(2-Hydroxypropan-2-yl)Pyridin-2-yl]-2-Cyclopropyl-2-Hydroxyethyl}-8-(Cyclopropyloxy)-3-Methylcinnoline-6-Carboxamide]	0.87	32000	–	–	–
COc1cc(C(=O)NC[C@](O)(c2cc(C(C)(C)O)c(F)c(-c3ccc(F)cc3)n2)C(F)(F)F)cc2cc(C(F)F)cnc12 [compound 325, (-)(Difluoromethyl)-8-Methoxy-N-(3,3,3-Trifluoro-2-(5-Fluoro-6-(4-Fluorophenyl)-4-(2-Hydroxypropan-2-yl)Pyridin-2-yl)-2-Hydroxypropyl)Quinoline-6-Carboxamide]	3.6	13000	–	–	–
COc1cc(C(=O)NC[C@](O)(c2cc(C(C)(C)O)c(F)c(-c3ccc(F)c(C)c3)n2)C(F)(F)F)cc2cc(C)nnc12 [compound 238, (+)Methoxy-3-Methyl-N-{3,3,3-Trifluoro-2-[5-Fluoro-6-(4-Fluoro-3-Methylphenyl)-4-(2-Hydroxypropan-2-yl)Pyridin-2-yl]-2-Hydroxypropyl}Cinnoline-6-Carboxamide]	2.9	23000	–	–	–
COc1cc(C(=O)NC[C@@](O)(c2cc(C(C)(C)O)c(F)c(-c3ccc(F)cc3)n2)C2CC2(C)C)cc2cc(C)nnc12 (single isomer, unassigned) [compound 295, N-((+)(2,2-dimethylcyclopropyl)(5-fluoro-6-(4-fluorophenyl)-4-(2-hydroxypropanyl)pyridinyl)hydroxyethyl)-8-methoxy-3-methylcinnoline-6-carboxamide]	180	12000	–	–	–
COc1cc(C(=O)NC[C@](O)(c2nc(-c3ccc(F)cc3)cc(C(C)(C)O)c2F)C(F)(F)F)cc2cc(C)nnc12 [compound 281, (-)Methoxy-3-Methyl-N-(3,3,3-Trifluoro-2-(3-Fluoro-6-(4-Fluorophenyl)-4-(2-Hydroxypropan-2-yl)Pyridin-2-yl)-2-Hydroxypropyl)Cinnoline-6-Carboxarmide]	29	24000	–	–	–
Cc1cnc2c(OC3CC3)cc(C(=O)NC[C@](O)(c3cc(C(C)(C)O)c(F)c(-c4ccc(F)cc4)n3)C(F)(F)F)cc2c1 [compound 323, (-)Cyclopropoxy-3-Methyl-N-(3,3,3-Trifluoro-2-(5-Fluoro-6-(4-Fluorophenyl)-4-(2-Hydroxypropan-2-yl)Pyridin-2-yl)-2-Hydroxypropyl)Quinoline-6-Carboxamide]	–	–	3.8	–	–
COc1cc(C(=O)NC[C@](C)(O)c2cc(C(C)(C)O)c(Cl)c(-c3ccc(F)cc3)n2)cc2cc(C)nnc12 [compound 229, (-)-N-{2-[5-Chloro-6-(4-Fluorophenyl)-4-(2-Hydroxypropan-2-yl)Pyridin-2-yl]-2-Hydroxypropyl}-8-Methoxy-3-Methylcinnoline-6-Carboxamide]	0.81	44000	–	–	–
COc1cc(C(=O)NC[C@](O)(c2cc(C(C)(C)O)c(Cl)c(-c3ccc(F)cc3)n2)C2CC2)cc2cc(C)nnc12 [compound 251, N-{(-)[5-Chloro-6-(4-Fluorophenyl)-4-(2-Hydroxypropanyl)Pyridinyl]CyclopropylHydroxyethyl}-8-Methoxy-3-Methylcinnoline-6-Carboxamide]	0.53	28000	–	–	–
COc1cc(C(=O)NC[C@](O)(c2nc(-c3ccc(F)cc3)c(F)c(C(C)(C)NS(C)(=O)=O)c2F)C(F)(F)F)cc2cc(C)nnc12 [compound 243, (-)-N-{2-[3,5-Difluoro-6-(4-Fluorophenyl)-4-{2-[(Methanesulfoyl)Amino]Propan-2-yl}Pyridin-2-yl]-3,3,3-Trifluoro-2-Hydroxypropyl}-8-Methoxy-3-Methylcinnoline-6-Carboxamide]	3	45000	–	–	–
COc1cc(C(=O)NC[C@](O)(c2nc(-c3ccc(F)cc3)c(F)c(C(C)(C)O)c2F)C2CC2)cc2cc(C3CC3)nnc12 [compound 288, (-)Cyclopropyl-N-(2-Cyclopropyl-2-(3,5-Difluoro-6-(4-Fluorophenyl)-4-(2-Hydroxypropan-2-yl)Pyridin-2-yl)-2-Hydroxyethyl)-8-Methoxycinnoline-6-Carboxamide]	4.8	21000	–	–	–
COc1cc(C(=O)NCC(O)(c2cc(C(C)(C)N)c(F)c(-c3ccc(F)c(Cl)c3)n2)C(F)(F)F)cc2cccnc12 (centres unmarked) [reference compound]	–	–	–	53	13000
COc1cc(C(=O)NC[C@](O)(c2cc(C(C)(C)O)c(F)c(-c3ccc(F)cc3)n2)C2CC2)cc2cc(C(F)F)nnc12 [compound 269]	1.2	20000	–	–	–
Cc1cnc2c(OC3CC3)cc(C(=O)NC[C@](O)(c3nc(-c4ccc(F)cc4)c(F)c(C(C)(C)O)c3F)C(F)(F)F)cc2c1 [compound 220, (-)(Cyclopropyloxy)-N-{2-[3,5-Difluoro-6-(4-Fluorophenyl)-4-(2-Hydroxypropan-2-yl)Pyridin-2-yl]-3,3,3-Trifluoro-2-Hydroxypropyl}-3-Methylquinoline-6-Carboxamide]	2.4	36000	–	–	–
Cc1cnc2c(OC3CC3)cc(C(=O)NC[C@](O)(c3cc(C(C)(C)O)c(Cl)c(-c4ccc(F)cc4)n3)C3CC3)cc2c1 [compound 222, (-)-A-{2-[5-Chloro-6-(4-Fluorophenyl)-4-(2-Hydroxypropan-2-yl)Pyridin-2-yl]-2-Cyclopropyl-2-Hydroxyethyl}-8-(Cyclopropyloxy)-3-Methylquinoline-6-Carboxamide]	1.5	27000	–	–	–
COc1cc(C(=O)NC[C@](O)(c2cc(C(C)(C)O)cc(-c3ccc(F)cc3)n2)C(C)(C)F)cc2cc(C)nnc12 [compound 306]	1	50000	–	–	–
COc1cc(C(=O)NC[C@](O)(c2cc(C(C)(C)O)c(F)c(-c3ccc(F)cc3)n2)C(F)(F)F)cc2cc(C3CC3)nnc12 [compound 286, (-)Cyclopropyl-8-Methoxy-N-(3,3,3-Trifluoro-2-(5-Fluoro-6-(4-Fluorophenyl)-4-(2-Hydroxypropan-2-yl)Pyridin-2-yl)-2-Hydroxypropyl)Cinnoline-6-Carboxamide]	2.6	8900	–	–	–
